According to BindingDB's records for doi:10.1021/jm00116a002 (Abbott Laboratories, 1992):

Experiments:
[1] = target: Gastrin/cholecystokinin type B receptor (Cavia porcellus); assay: The compound was tested for the inhibition of [125I]-Bolton-Hunter CCK-8 binding to cholecystokinin type B receptor in guinea pig cerebral cortical
[2] = target: Gastrin/cholecystokinin type B receptor (Cavia porcellus); assay: The compound was tested for the inhibition of [125I]-Bolton-Hunter CCK-8 binding to cholecystokinin type B receptor in guinea pig cerebral cortical; Not determined

Row | SMILES | IC50 [1] [µM] | IC50 [2] [µM]
1 | CN(Cc1ccccc1)C(=O)[C@@H](Cc1c[nH]c2ccccc12)NC(=O)c1cnc2ccccc2c1 | 10 | –
2 | CCCCCN(CCCCC)C(=O)[C@@H](Cc1c[nH]c2ccccc12)NC(=O)c1ccc2ccccc2c1 | 11 | –
3 | CCCCCN(CCCCC)C(=O)[C@@H](Cc1c[nH]c2ccccc12)NC(=O)c1c[nH]c2ccccc12 | 20 | –
4 | CCCCCN(CCCCC)C(=O)[C@@H](Cc1c[nH]c2ccccc12)NC(=O)c1cccc2ccccc12 | 9.7 | –
5 | CCCCCN(CCCCC)C(=O)[C@@H](Cc1c[nH]c2ccccc12)NC(=O)c1ccc2cccc(O)c2n1 | > 10 | –
6 | CCCCCN(CCCCC)C(=O)[C@@H](CC1C(=O)Nc2ccccc21)NC(=O)c1cnc2ccccc2c1 (some centres not stated) | 4.1 | –
7 | CCCCCN(CCCCC)C(=O)[C@@H](Cc1c[nH]c2ccccc12)NC(=O)/C=C/c1cccnc1 | – | > 10
8 | CCCCCN(CCCCC)C(=O)[C@@H](Cc1c[nH]c2ccccc12)NC(=O)c1ccc(Cl)c(Cl)c1 | > 10 | –
9 | C[C@H](NC(=O)[C@@H](Cc1c[nH]c2ccccc12)NC(=O)c1cnc2ccccc2c1)c1ccccc1 | > 10 | –
10 | CCOC(=O)CN(Cc1ccccc1)C(=O)[C@@H](Cc1c[nH]c2ccccc12)NC(=O)c1cnc2ccccc2c1 | 9.2 | –
11 | CCCCCN(CCCCC)C(=O)[C@H](Cc1c[nH]c2ccccc12)NC(=O)c1ccc(Cl)c(Cl)c1 | > 10 | –
12 | CCCCCN(CCCCC)C(=O)[C@@H](Cc1c(Sc2ccccc2[N+](=O)[O-])[nH]c2ccccc12)NC(=O)c1cnc2ccccc2c1 | – | > 10
